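Following 48 hours of exposure in 96-well plates, responses at five concentrations were used to interpolate endpoints linearly. GI50: concentration for 50% inhibition of growth.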 Calls of active or inactive are those of the source. No stated cut-off is given here; in the data, active = GI50 up to about 1.1 µM and inactive = higher.
Tests used:
Assay in all cases: NCI anticancer screen, dose series, 48 h
[1] = test system: HCC 2998
[2] = test system: SK-MEL-5
[3] = test system: HCT-116
[4] = test system: Malme-3M
[5] = test system: SNB-75
[6] = test system: EKVX
[7] = test system: 786-0
[8] = test system: UO-31
[9] = test system: K562
[10] = test system: ACHN
[11] = test system: MCF7
[12] = test system: MOLT-4
[13] = test system: SN12C
[14] = test system: CAKI-1
[15] = test system: SW-620
[16] = test system: MDA-MB-231
[17] = test system: NCI-H460
[18] = test system: U-251
[19] = test system: HOP-92
[20] = test system: M14

Structure (SMILES) | GI50 [1] | GI50 [2] | GI50 [3] | GI50 [4] | GI50 [5] | GI50 [6] | GI50 [7] | GI50 [8] | GI50 [9] | GI50 [10] | GI50 [11] | GI50 [12] | GI50 [13] | GI50 [14] | GI50 [15] | GI50 [16] | GI50 [17] | GI50 [18] | GI50 [19] | GI50 [20]
O=C1OC(C(O)C(O)C(O)CO)C(O)C1O (stereo not given) | > 100 µM (inactive) | > 100 µM (inactive) | > 100 µM (inactive) | > 100 µM (inactive) | > 100 µM (inactive) | > 100 µM (inactive) | > 100 µM (inactive) | > 100 µM (inactive) | > 100 µM (inactive) | > 100 µM (inactive) | > 100 µM (inactive) | > 100 µM (inactive) | > 100 µM (inactive) | > 100 µM (inactive) | > 100 µM (inactive) | > 100 µM (inactive) | > 100 µM (inactive) | > 100 µM (inactive) | > 100 µM (inactive) | > 100 µM (inactive)
C/C(=N\N=C(/S)N1CC2CCC(CC2)C1)c1cccc[n+]1[O-] | 10.8 µM (inactive) | 6.21 µM (inactive) | 3.61 µM (inactive) | 12.5 µM (inactive) | 11.5 µM (inactive) | 7.45 µM (inactive) | 6.9 µM (inactive) | 3.12 µM (inactive) | 0.228 µM (active) | 5 µM (inactive) | 5.7 µM (inactive) | 0.373 µM (active) | 7.67 µM (inactive) | 9.14 µM (inactive) | 4.35 µM (inactive) | 19.5 µM (inactive) | 8.09 µM (inactive) | 6.28 µM (inactive) | 13.2 µM (inactive) | 6.15 µM (inactive)
CC(C)=CCc1c(O)cc2oc(-c3ccc(O)cc3O)cc(=O)c2c1O | 17.3 µM (inactive) | 19.9 µM (inactive) | 25.1 µM (inactive) | 25.3 µM (inactive) | 23.8 µM (inactive) | 42.3 µM (inactive) | 26 µM (inactive) | 4.32 µM (inactive) | 8.87 µM (inactive) | 26.9 µM (inactive) | 24.4 µM (inactive) | 1.95 µM (inactive) | 28.8 µM (inactive) | 28.5 µM (inactive) | 28 µM (inactive) | 26.4 µM (inactive) | 36.6 µM (inactive) | 32.2 µM (inactive) | 32.4 µM (inactive) | 27.9 µM (inactive)
CCOC1SC(SC)=NN1C(=O)C(OC(C)=O)C(OC(C)=O)C(OC(C)=O)C(OC(C)=O)C(=O)N1N=C(SC)SC1OCC (stereo not given) | > 100 µM (inactive) | > 100 µM (inactive) | 88.5 µM (inactive) | > 100 µM (inactive) | 48.3 µM (inactive) | > 100 µM (inactive) | 62.1 µM (inactive) | > 100 µM (inactive) | > 100 µM (inactive) | > 100 µM (inactive) | > 100 µM (inactive) | > 100 µM (inactive) | > 100 µM (inactive) | > 100 µM (inactive) | > 100 µM (inactive) | > 100 µM (inactive) | > 100 µM (inactive) | 86.3 µM (inactive) | 38.2 µM (inactive) | > 100 µM (inactive)
COC(=O)C1SC[C@H]2C(=O)N(c3ccccc3)C(=O)N12 (stereo not given in full) | > 100 µM (inactive) | > 100 µM (inactive) | > 100 µM (inactive) | > 100 µM (inactive) | > 100 µM (inactive) | > 100 µM (inactive) | > 100 µM (inactive) | > 100 µM (inactive) | > 100 µM (inactive) | > 100 µM (inactive) | > 100 µM (inactive) | > 100 µM (inactive) | > 100 µM (inactive) | > 100 µM (inactive) | > 100 µM (inactive) | > 100 µM (inactive) | > 100 µM (inactive) | > 100 µM (inactive) | 85.3 µM (inactive) | > 100 µM (inactive)
Cc1cc(=O)[nH]c2cc(NC(=O)C(CCCNC(=N)N)NC(=O)OCc3ccccc3)ccc12 (stereo not given) | > 100 µM (inactive) | > 100 µM (inactive) | > 100 µM (inactive) | > 100 µM (inactive) | > 100 µM (inactive) | > 100 µM (inactive) | > 100 µM (inactive) | > 100 µM (inactive) | > 100 µM (inactive) | > 100 µM (inactive) | > 100 µM (inactive) | > 100 µM (inactive) | > 100 µM (inactive) | > 100 µM (inactive) | > 100 µM (inactive) | > 100 µM (inactive) | > 100 µM (inactive) | > 100 µM (inactive) | 78.5 µM (inactive) | > 100 µM (inactive)
O=C1CC(C(O)C(O)C(O)CO)CC(=O)N1 (stereo not given) | > 100 µM (inactive) | > 100 µM (inactive) | > 100 µM (inactive) | > 100 µM (inactive) | > 100 µM (inactive) | > 100 µM (inactive) | > 100 µM (inactive) | > 100 µM (inactive) | > 100 µM (inactive) | > 100 µM (inactive) | > 100 µM (inactive) | > 100 µM (inactive) | > 100 µM (inactive) | > 100 µM (inactive) | > 100 µM (inactive) | > 100 µM (inactive) | > 100 µM (inactive) | > 100 µM (inactive) | > 100 µM (inactive) | > 100 µM (inactive)
C=CCC1(O)C(=O)OC2C(O)COC21O (stereo not given) | > 100 µM (inactive) | > 100 µM (inactive) | > 100 µM (inactive) | > 100 µM (inactive) | 35.4 µM (inactive) | > 100 µM (inactive) | > 100 µM (inactive) | > 100 µM (inactive) | > 100 µM (inactive) | > 100 µM (inactive) | > 100 µM (inactive) | > 100 µM (inactive) | > 100 µM (inactive) | > 100 µM (inactive) | > 100 µM (inactive) | > 100 µM (inactive) | > 100 µM (inactive) | > 100 µM (inactive) | > 100 µM (inactive) | > 100 µM (inactive)
O=C1c2ccccc2C(=O)c2c1ccc1nc3c(nc21)-c1c2ccccc2cc2cccc-3c12 | > 95.3 µM (inactive) | 46.7 µM (inactive) | 5.56 µM (inactive) | 51.9 µM (inactive) | 19.5 µM (inactive) | 18.3 µM (inactive) | 21.5 µM (inactive) | 17.6 µM (inactive) | > 29.6 µM (inactive) | 16.1 µM (inactive) | 17.6 µM (inactive) | 18.6 µM (inactive) | 35.8 µM (inactive) | 23.4 µM (inactive) | > 63.1 µM (inactive) | 74.1 µM (inactive) | 26.2 µM (inactive) | 31.3 µM (inactive) | > 73.8 µM (inactive) | 32.4 µM (inactive)
CCCCCCCCCCCCCCC[C@@H](O)C[N+](C)(C)CCO | 1.8 µM (inactive) | 2.72 µM (inactive) | 3.99 µM (inactive) | 2.81 µM (inactive) | 0.597 µM (active) | 8.77 µM (inactive) | 0.927 µM (active) | 7.01 µM (inactive) | 2.41 µM (inactive) | 3.95 µM (inactive) | 5.85 µM (inactive) | 2.17 µM (inactive) | 5.61 µM (inactive) | 0.977 µM (active) | 4.14 µM (inactive) | 1.8 µM (inactive) | 1.52 µM (inactive) | 1.73 µM (inactive) | 1.27 µM (inactive) | 3.62 µM (inactive)
C[N+]12CCCCC1C(CN1C(=O)Cc3c4ccccc4c(c4ccccc34)CC1=O)CCC2 (stereo not given) | > 100 µM (inactive) | > 100 µM (inactive) | > 100 µM (inactive) | > 100 µM (inactive) | > 100 µM (inactive) | > 100 µM (inactive) | > 100 µM (inactive) | > 100 µM (inactive) | > 100 µM (inactive) | > 100 µM (inactive) | > 100 µM (inactive) | > 100 µM (inactive) | > 100 µM (inactive) | > 100 µM (inactive) | > 100 µM (inactive) | > 100 µM (inactive) | > 100 µM (inactive) | > 100 µM (inactive) | > 100 µM (inactive) | > 100 µM (inactive)
CC1(C)CCCCCCCCCC(C)(CCCO)C1=O (stereo not given) | 17.7 µM (inactive) | 17.5 µM (inactive) | 17.3 µM (inactive) | 16.8 µM (inactive) | 17.9 µM (inactive) | 15.8 µM (inactive) | 16.9 µM (inactive) | 12 µM (inactive) | 24.6 µM (inactive) | 17.9 µM (inactive) | 17.1 µM (inactive) | 14.1 µM (inactive) | 18.2 µM (inactive) | 17.7 µM (inactive) | 19.7 µM (inactive) | 15.2 µM (inactive) | 18.4 µM (inactive) | 16.8 µM (inactive) | 14.5 µM (inactive) | 14.3 µM (inactive)
C/C(=N\NC(=S)N1CCN(c2ccccn2)CC1)c1ccccn1 | 0.931 µM (active) | 0.0944 µM (active) | 0.00158 µM (active) | 0.224 µM (active) | 3.23 µM (inactive) | < 0.0154 µM (active) | 0.074 µM (active) | 0.998 µM (active) | 0.00296 µM (active) | < 0.0239 µM (active) | 0.00782 µM (active) | 0.0156 µM (active) | 0.0206 µM (active) | 0.0467 µM (active) | 0.017 µM (active) | 0.0495 µM (active) | 0.252 µM (active) | 0.00356 µM (active) | 0.0776 µM (active) | 0.0431 µM (active)
CN(C)Cc1cc(C(=O)/C=C/c2ccc(Cl)c(Cl)c2)cc(CN(C)C)c1O | 3.4 µM (inactive) | 1.6 µM (inactive) | 2.77 µM (inactive) | 2.88 µM (inactive) | 2.07 µM (inactive) | 8.36 µM (inactive) | 1.36 µM (inactive) | 1.83 µM (inactive) | 1.31 µM (inactive) | 1.67 µM (inactive) | 2.48 µM (inactive) | 3.18 µM (inactive) | 2.25 µM (inactive) | 1.13 µM (inactive) | 1.45 µM (inactive) | 2.68 µM (inactive) | 2.12 µM (inactive) | 3.08 µM (inactive) | 0.598 µM (active) | 2.02 µM (inactive)
